# Results published in US7829087B2, “Methods of treating cognitive impairment” (Elan Pharmaceuticals, Inc., priority 2001, dated 2010).
# “And” between values parts separate entries of the source, which are not always exact repeats. Equal entries are not always repeated.
# Experiments:
# LTP in the CA1 area = assay: Aβ-mediated inhibition of LTP in the CA1 in vivo; design: species or system rat
# LTP in the dentate gyrus = assay: Aβ-mediated inhibition of LTP in the dentate gyrus in vitro (hippocampal slices, field EPSPs); assay type: cell-based, rat; details: for Suppression of Aβ inhibition of LTP in vitro (figure legends): dentate gyrus in vitro
# Experimental: All experiments were carried out on transverse slices of the rat hippocampus (males, age 3-4 weeks, weight 40-80 g) or mice (males, age 3-4 months). The brains were rapidly removed after decapitation and placed in cold oxygenated (95% O2/5% CO2) media. Slices were cut at a thickness of 350 μm using an Intracell Plus 1000 and placed in a storage container containing oxygenated medium at room temperature (20-22° C.) for 1 hr. The slices were then transferred to a recording chamber for submerged slices and continuously superfused at a rate of 5-6 ml/min at 30-32° C. The control media contained (in mM): NaCl, 120; KCl 2.5, NaH2PO4, 1.25; NaHCO3 26; MgSO4, 2.0; CaCl2, 2.0; D-glucose 10. All solutions contained 100 μM picrotoxin (Sigma) to block GABAA-mediated activity.
# Standard electrophysiological techniques were used to record field potentials. Presynaptic stimulation was applied to the medial perforant pathway of the dentate gyrus using a bipolar insulated tungsten wire electrode, and field excitatory postsynaptic potentials (EPSPs) were recorded at a control test frequency of 0.033 Hz from the middle one-third of the molecular layer of the dentate gyrus with a glass microelectrode. The inner blade of the dentate gyrus was used in all studies. In each experiment, an input-output curve (afferent stimulus intensity versus EPSP amplitude) was plotted at the test frequency. For all experiments, the amplitude of the test EPSP was adjusted to one-third of maximum (˜1.2 mV). LTP was evoked by 8 trains of high frequency stimulation (HFS), each of 8 stimuli at 200 Hz, inter-train interval 2s, with the stimulation voltage increased during the HFS so as to evoke an initial EPSP of the train of double the normal test EPSP amplitude. Control (vehicle alone) and experimental levels of LTP were measured on slices prepared from the same hippocampus. Recordings were analysed using p-CLAMP (Axon Instruments, CA, USA). The values reported herein were the means±S.E.M. for n slices. Two-tailed Student's t-test was used for statistical comparison.
# Synthetic Aβ (1-42) was obtained from Bachem. For the in vitro experiments, synthetic Aβ1-42 was prepared as a stock solution of 50 μM in ammonium hydroxide (0.1%), stored at −20° C., and then added to physiological medium immediately prior to each experiment. For the in vivo experiments, synthetic Aβ(1-42) (Bachem) was re-suspended in ice-cold milliQ water or Teplow. An aliquot was removed and centrifuged at 100,000 g for 3 h, conditions known to pellet fibrils and protofibrils (Klyubin et al., 2004).
# The following integrin-αv antibodies (all IgG1 isotype) were used in the studies: 18C7, 17E6 and 20A9 (all from Calbiochem). The control antibodies used were 7H10, an IgG2a mouse antibody against human ICAM-1 and 27/1, an IgG1 isotype. Other compounds used were echistatin (Source), SM256 (3-[1-[3-(N-imidazol-2-ylamino)propyl]indazol-5-ylcarbonylamino]-2(S)-(2,4,6-trimethylbenzenesulfonylamino)propionic acid trifluoroacetate) which was prepared by Elan Pharmaceuticals (recoded as ELN 151993) according to the methods of Van Maes et al, 1994, superfibernectin (Sigma) and phalloidin (Calbiochem). In the in vivo experiments, SM256 was prepared for i.p administration in a suspension of Tween 80 (Sigma) in saline (15% v/v).
# Human cortical neurons = assay: Amylin two component toxicity; assay type: cell-based; details: seed amylin 1 hour, then soluble amylin; toxicity after 1 day
# Experimental: Seed or aggregated amylin (1 mM) from CPR, Inc. (641-80, lot NG-0213) was made by adding 200 μl water/mg powder and then aging the solution for three days at 37° C. Soluble amylin (5 mM) was prepared by adding 40 μl DMSO/mg powder and sonicating the mixture for 30 minutes in a water bath. Both stock solutions were aliquoted and frozen until ready for use. Soluble amylin stock was diluted to 20 μM in culture medium just prior to use and filtered through an Amicon 30 filter that had been pre-washed with water. Filtered material was then diluted to its appropriate concentration.
# Human cortical neurons (at 125,000 cells/96 well) were treated for 1 hour with seed amylin at 5 μM, 100 μl/well. Cells were aspirated and soluble amylin was added back at 5 μM per 100 μl/well. For compound studies, 50 μl of 2× compound was added before adding the soluble amylin.
# [1] = tested on: Aβ meshwork in human cortical cultures (HCC); assay: Aβ meshwork formation on human cortical cultures (Aβ immunofluorescence); assay type: cell-based; details: for Inhibition of Aβ meshwork formation (in words): HCC
# Experimental: (§1) Tissue culture plates were coated with polyethyleneimine (PEI) in 150 mM sodium borate, pH 8.5, and incubated overnight at room temperature. Prior to adding cells, the wells were washed with PBS and Minimal Essential Media (MEM with 10% FBS) was added until cells were ready for plating. Human fetal cerebral cortex (E13-E16) was rinsed with Hank's Balanced Salt Solution (HBSS). Tissue was triturated in 1 mg of DNAse in HBSS. This suspension was filtered through a 100 micron nylon cell strainer and spun at 250×g for 5 minutes. The cells were resuspended in trypsin and incubated at 37° C. for 20 minutes. Modified Minimal Essential Media (MMEM with 10% FBS and 1 mg of DNase) was added and the cells were resuspended; then collected again by centrifugation. Cells were resuspended in MMEM containing B27, and plated in washed PEI-coated plates at 125,000 cells/well in 96 well plates or at 2.5 million cells/well in 6 well plates. The human cortical cultures (HCC) were incubated for 3 weeks with biweekly medium exchanges prior to treatment.
# (§2) Aβ was generated by adding double distilled water (ddH2O) to Aβ to make up a 1 mM stock. This was aged for 3 days at 37° C., aliquoted, and stored frozen at −20° C. Soluble Aβ was made by adding DMSO to Aβ to make a 7.5 mM stock, sonicating for 30 minutes, aliquoting, and freezing at −20° C. Neurotoxic Aβ was generated by adding ddH2O to Aβ, aliquoting, and freezing at −20° C.
# HCC treated with Aβ for 72 hours were fixed with 4% paraformaldehyde, stained with 5 μg/ml anti-Aβ-3D6-biotin, and visualized with 10 μg/ml streptavidin-FITC (Jackson).
# [2] = tested on: human cortical cultures (HCC); assay: Aβ neurotoxicity in human cortical neurons (alamar blue); assay type: cell-based; details: for Maximal inhibition of toxicity (%): Aβ neurotoxicity in HCC, 3 days; for Inhibition of Aβ neurotoxicity (in words): HCC
# Experimental: as §1, §2
# HCC were pretreated with antibodies or ligands for 30 minutes in neuronal medium (MEM) supplemented with glutamine and penicillin/streptomycin (basal media). One micromolar Aβ in basal medium was added for 1 hour. The medium was removed and the HCC were treated with antibodies or ligands and 20 μM soluble Aβ in basal medium for 3 days. At three days, the toxicity was determined by incubating in 10% alamar blue in basal medium for two hours. Fluorescence levels were measured relative to control and Aβ treated wells in triplicate.
compound,measurement,setting,value
"Cc1cc(C)c(S(=O)(=O)N[C@@H](CNC(=O)c2ccc3c(cnn3CCCNc3ncc[nH]3)c2)C(=O)O)c(C)c1.O=C(O)C(F)(F)F [SM256, 3-[1-[3-(N-imidazol-2-ylamino)propyl]indazol-5-ylcarbonylamino]-2(S)-(2,4,6-trimethylbenzenesulfonylamino)propionic acid trifluoroacetate]",Suppression of soluble Aβ inhibition of LTP in vivo (figure legends),LTP in the CA1 area; CA1 area in vivo,suppresses inhibition of LTP by soluble Aβ
same,LTP after SM256 plus soluble Aβ,"LTP in the CA1 area; SM256 40 mg in 1.2 ml vehicle i.p., Aβ 50 pmol i.c.v. 40 min later, 10 min before HFS",133±5%
same,Effect of SM256 alone on baseline synaptic transmission or control LTP,"LTP in the CA1 area; SM256 40 mg in 1.2 ml vehicle, i.p.",no discernible effect on baseline synaptic transmission or control LTP
same,LTP in the presence of Aβ plus SM256,"LTP in the dentate gyrus; SM256 10 μl M plus Aβ, n=5",129±5%
same,LTP with SM256 alone,"LTP in the dentate gyrus; SM256 10 μl M, no Aβ",148±7%
same,Suppression of Aβ inhibition of LTP in vitro (figure legends),LTP in the dentate gyrus,suppresses inhibition of LTP by Aβ
C=C1[C@@H](C)[C@H]2[C@H](Cc3ccccc3)NC(=O)[C@]23[C@H](OC(C)=O)/C=C/[C@@](C)(O)C(=O)[C@@H](C)C/C=C/[C@H]3[C@@H]1O [cytochalasin D],Protection against amylin two component toxicity (in words),Human cortical neurons,amylin two component toxicity is further inhibited
"Aβ: Synthetic Aβ (1-42) from Bachem, used to inhibit LTP",LTP (% baseline) in the presence of soluble fibril-free Aβ,"LTP in the CA1 area; Aβ 50 pmol in 5 μl i.c.v., 10 min prior to HFS, 3 h post-HFS, anaesthetized rats",105±5%
same,LTP after peripheral vehicle followed by central injection of Aβ,"LTP in the CA1 area; vehicle i.p., Aβ 50 pmol i.c.v.",103±10%
same,"LTP (EPSP, % baseline) in the presence of Aβ alone","LTP in the dentate gyrus; Aβ 500 nM, 1 h post-HFS, dentate gyrus slices",105±3 % baseline and 105±6 % baseline and 103±3 % baseline
"Fibronectin: αvβ1 integrin ligand, large multidomain glycoprotein",Meshwork Inhibition,"[1]; Aβ meshwork on HCC, Table 1",Yes
same,Inhibition of Aβ meshwork formation (in words),[1],capable of inhibiting Aβ meshwork formation and neurotoxicity
same,Maximal inhibition of toxicity (%),[2],32%
same,Inhibition of Aβ neurotoxicity (in words),[2],capable of inhibiting Aβ meshwork formation and neurotoxicity
Laminin,Inhibition of Aβ meshwork formation (in words),[1],not capable of inhibiting Aβ meshwork or neurotoxicity
same,Maximal inhibition of toxicity (%),[2],20%
same,Inhibition of Aβ neurotoxicity (in words),[2],not capable of inhibiting Aβ meshwork or neurotoxicity
echistatin (QCESGPCCRNCKFLKEGTICKRARGDDMDDYCNGKTCDCPRNPHKGPAT),Suppression of Aβ inhibition of LTP in vitro (figure legends),LTP in the dentate gyrus,suppresses inhibition of LTP by Aβ
same,LTP in the presence of Aβ plus echistatin,"LTP in the dentate gyrus; echistatin 50 nM plus Aβ, n=5",143±6%
same,LTP with echistatin alone,"LTP in the dentate gyrus; echistatin 50 nM, no Aβ",158±5%
